Measured values published in patent US12139520B2 (priority 2020, dated 2024).
Bridge positions count the residues as written; N and C are the ends. Square brackets hold non-standard residues; d marks the D form. Peptide text beside a SMILES is read from it. Hyp = O=C(O)[C@@H]1C[C@@H](O)CN1

Assays:
hAMY3 receptor = molecular target: T1, hAMY3 receptor (Homo sapiens, UniProt O60896+P30988); experiment: cAMP assay for in vitro receptor activation, hAMY3-R; assay type: cell-based; settings: cAMP assay, hAMY3 receptor; read-out: hAMY3R EC50
T1 sequence (P30988 25-474): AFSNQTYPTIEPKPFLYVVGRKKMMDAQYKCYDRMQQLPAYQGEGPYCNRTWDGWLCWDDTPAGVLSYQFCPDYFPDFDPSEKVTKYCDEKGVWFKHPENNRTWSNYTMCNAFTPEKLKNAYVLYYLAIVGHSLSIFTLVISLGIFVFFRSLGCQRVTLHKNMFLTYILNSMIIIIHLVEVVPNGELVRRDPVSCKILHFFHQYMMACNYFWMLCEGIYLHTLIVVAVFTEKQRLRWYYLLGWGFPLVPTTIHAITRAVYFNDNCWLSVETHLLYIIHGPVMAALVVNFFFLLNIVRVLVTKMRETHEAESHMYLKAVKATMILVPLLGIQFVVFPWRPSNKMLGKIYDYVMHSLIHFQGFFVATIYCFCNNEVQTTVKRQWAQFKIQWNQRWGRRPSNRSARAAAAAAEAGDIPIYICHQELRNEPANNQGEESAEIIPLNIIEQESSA
T1 sequence (O60896 24-148 partner): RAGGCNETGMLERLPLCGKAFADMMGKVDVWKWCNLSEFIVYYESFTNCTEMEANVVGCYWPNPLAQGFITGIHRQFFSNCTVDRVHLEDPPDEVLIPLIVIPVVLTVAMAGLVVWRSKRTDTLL
Outline: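 Receptor activation was measured as cAMP accumulation in a monoclonal cell line stably overexpressing hAMY3. Stimulation with graded doses lasted 30 min at room temperature in the presence of 0.5 mM IBMX, with human amylin as positive control.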

hAM1 receptor = hAM1 receptor (Homo sapiens, UniProt O60895+Q16602); experiment: cAMP assay for in vitro receptor activation, hAM1-R; assay type: cell-based; settings: cAMP assay, hAM1 receptor; read-out: hAM1R EC50
Outline: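 Receptor activation, read as cAMP, was assessed in thawed cells of a monoclonal hAM1-overexpressing stable line, plated at 8000 cells/well in DPBS supplemented with 0.05% casein and 0.5 mM IBMX.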

[1] = Physical stability of peptide analogues (Thioflavin T fibrillation); assay type: physicochemical; settings: maximum ThT signal normalized between hAMY maximum and buffer background; 40° C., shaking, four days; pH 7 per table title
Outline: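 Peptides in 50 mM sodium acetate pH 4 or 50 mM sodium phosphate pH 7 were preincubated 1 h, mixed with 4 μM ThT, held at 40° C with 700 rpm shaking before each read. Fluorescence (ex 450/em 480 nm) every 10 min for four days; LOESS-smoothed maximum signal normalized in percent between hAMY and buffer.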

hAM1 receptor, sequence (Q16602 23-461): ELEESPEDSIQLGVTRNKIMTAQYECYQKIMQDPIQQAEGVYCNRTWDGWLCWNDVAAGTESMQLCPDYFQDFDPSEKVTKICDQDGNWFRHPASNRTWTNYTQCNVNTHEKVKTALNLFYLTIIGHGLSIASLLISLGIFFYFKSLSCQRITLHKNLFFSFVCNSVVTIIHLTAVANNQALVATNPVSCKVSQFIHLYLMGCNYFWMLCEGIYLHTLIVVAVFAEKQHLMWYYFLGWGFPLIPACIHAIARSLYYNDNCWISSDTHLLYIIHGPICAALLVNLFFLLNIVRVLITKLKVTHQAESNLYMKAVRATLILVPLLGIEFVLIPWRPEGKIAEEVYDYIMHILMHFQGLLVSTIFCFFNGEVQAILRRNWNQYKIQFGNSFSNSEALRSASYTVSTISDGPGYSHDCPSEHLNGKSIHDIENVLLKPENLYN
hAM1 receptor, sequence (O60895 43-175 partner): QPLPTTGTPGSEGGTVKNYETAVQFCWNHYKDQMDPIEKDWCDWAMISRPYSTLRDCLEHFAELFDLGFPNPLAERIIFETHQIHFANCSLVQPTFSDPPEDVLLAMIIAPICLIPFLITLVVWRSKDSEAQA

| Compound | EC50 (hAMY3 receptor) [nM] | EC50 (hAM1 receptor) [µM] | Max ThT signal (%) [1] [%] |
| --- | --- | --- | --- |
| CC[C@H](C)[C@H](NC(=O)[C@H](CCC(N)=O)NC(=O)[C@H](Cc1c[nH]cn1)NC(=O)[C@H](C)NC(=O)[C@H](CC(C)C)NC(=O)[C@H](CCCNC(=N)N)NC(=O)[C@H](CCC(N)=O)NC(=O)[C@@H](NC(=O)[C@@H](NC(=O)[C@@H]1CSSC[C@H](NC(=O)[C@@H](N)CCCCN)C(=O)N[C@@H](CC(N)=O)C(=O)N[C@@H]([C@@H](C)O)C(=O)N[C@@H](C)C(=O)N[C@@H]([C@@H](C)O)C(=O)N1)[C@@H](C)O)C(C)C)C(=O)N[C@@H](Cc1ccc(O)cc1)C(=O)N[C@@H](Cc1ccccc1)C(=O)N[C@H](C(=O)N[C@@H](CC(=O)O)C(=O)N[C@@H](CCCCN)C(=O)N[C@@H](CC(=O)O)C(=O)N[C@@H](CCCCN)C(=O)N[C@@H](CC(=O)O)C(=O)N[C@@H](CC(N)=O)C(=O)N[C@H](C(=O)N[C@@H](C)C(=O)N1CCC[C@H]1C(=O)N1CCC[C@H]1C(=O)N[C@H](C(=O)N[C@@H](CC(N)=O)C(=O)N[C@H](C(=O)NCC(=O)N[C@@H](CO)C(=O)N[C@@H](CC(N)=O)C(=O)NCC(=O)N1C[C@H](O)C[C@H]1C(N)=O)C(C)C)[C@@H](C)O)C(C)C)[C@@H](C)O [compound 181] (H-KCNTATCTVQRLAHQIYFTDKDKDNVAPPTNVGSNG[Hyp]-NH2; disulfide 2-7; N-terminus assumed) | 0.082 | > 5 | 8.800 |
| CC[C@H](C)[C@H](NC(=O)[C@H](CCC(N)=O)NC(=O)[C@H](Cc1c[nH]cn1)NC(=O)[C@H](C)NC(=O)[C@H](CC(C)C)NC(=O)[C@H](CCCNC(=N)N)NC(=O)[C@H](CCC(N)=O)NC(=O)[C@@H](NC(=O)[C@@H](NC(=O)[C@@H]1CSSC[C@H](NC(=O)CN)C(=O)N[C@@H](CCCNC(=N)N)C(=O)N[C@@H]([C@@H](C)O)C(=O)NCC(=O)N[C@@H]([C@@H](C)O)C(=O)N1)[C@@H](C)O)C(C)C)C(=O)N[C@@H](Cc1ccc(O)cc1)C(=O)N[C@@H](CCC(N)=O)C(=O)N[C@@H](Cc1ccccc1)C(=O)N[C@H](C(=O)N[C@@H](CC(=O)O)C(=O)N[C@@H](CCCCN)C(=O)N[C@@H](Cc1ccccc1)C(=O)N[C@@H](CCCCN)C(=O)N[C@@H](CC(=O)O)C(=O)N[C@@H](CC(N)=O)C(=O)N[C@H](C(=O)N[C@@H](C)C(=O)N1CCC[C@H]1C(=O)N[C@@H](CCCNC(=N)N)C(=O)N[C@@H](CO)C(=O)N[C@@H](CCCCN)C(=O)N[C@H](C(=O)N[C@@H](CO)C(=O)N1CCC[C@H]1C(=O)N[C@@H](CCC(N)=O)C(=O)N[C@@H](Cc1c[nH]c2ccccc12)C(=O)N1C[C@H](O)C[C@H]1C(N)=O)[C@@H](C)CC)C(C)C)[C@@H](C)O [compound 185] (H-GCRTGTCTVQRLAHQIYQFTDKFKDNVAPRSKISPQW[Hyp]-NH2; disulfide 2-7; N-terminus assumed) | 0.09 | > 5 | 2.800 |
| CC[C@H](C)[C@H](NC(=O)[C@H](CCC(N)=O)NC(=O)[C@H](Cc1c[nH]cn1)NC(=O)[C@H](C)NC(=O)[C@H](CC(C)C)NC(=O)[C@H](CCCNC(=N)N)NC(=O)[C@H](CCC(N)=O)NC(=O)[C@@H](NC(=O)[C@@H](NC(=O)[C@@H]1CSSC[C@H](NC(=O)CN)C(=O)N[C@@H](CCCNC(=N)N)C(=O)N[C@@H]([C@@H](C)O)C(=O)NCC(=O)N[C@@H]([C@@H](C)O)C(=O)N1)[C@@H](C)O)C(C)C)C(=O)N[C@@H](Cc1ccc(O)cc1)C(=O)N[C@@H](CCC(N)=O)C(=O)N[C@@H](Cc1ccccc1)C(=O)N[C@H](C(=O)N[C@@H](CC(=O)O)C(=O)N[C@@H](CCCCN)C(=O)N[C@@H](Cc1ccccc1)C(=O)N[C@@H](CCCCN)C(=O)N[C@@H](CC(=O)O)C(=O)N[C@@H](CC(N)=O)C(=O)N[C@H](C(=O)N[C@@H](C)C(=O)N1CCC[C@H]1C(=O)N[C@@H](CCCNC(=N)N)C(=O)N[C@@H](CO)C(=O)N[C@@H](CCCCN)C(=O)N[C@H](C(=O)N[C@@H](CO)C(=O)N1CCC[C@H]1C(=O)N[C@@H](CCC(N)=O)C(=O)N[C@@H](Cc1ccc(O)cc1)C(=O)N1C[C@H](O)C[C@H]1C(N)=O)[C@@H](C)CC)C(C)C)[C@@H](C)O [compound 186] (H-GCRTGTCTVQRLAHQIYQFTDKFKDNVAPRSKISPQY[Hyp]-NH2; disulfide 2-7; N-terminus assumed) | 0.091 | > 5 | 0.600 |
| CC[C@H](C)[C@H](NC(=O)[C@H](CCC(N)=O)NC(=O)[C@H](Cc1c[nH]cn1)NC(=O)[C@H](C)NC(=O)[C@H](CC(C)C)NC(=O)[C@H](CCCNC(=N)N)NC(=O)[C@H](CCC(N)=O)NC(=O)[C@@H](NC(=O)[C@@H](NC(=O)[C@@H]1CSSC[C@H](NC(=O)CN)C(=O)N[C@@H](CCCNC(=N)N)C(=O)N[C@@H](CCSC)C(=O)NCC(=O)N[C@@H]([C@@H](C)O)C(=O)N1)[C@@H](C)O)C(C)C)C(=O)N[C@@H](Cc1ccc(O)cc1)C(=O)N[C@@H](CCC(N)=O)C(=O)N[C@@H](Cc1ccccc1)C(=O)N[C@H](C(=O)N[C@@H](CC(N)=O)C(=O)N[C@@H](CCCCN)C(=O)N[C@@H](CC(=O)O)C(=O)N[C@@H](CCCCN)C(=O)N[C@@H](CC(=O)O)C(=O)N[C@@H](CC(N)=O)C(=O)N[C@H](C(=O)N[C@@H](C)C(=O)N1CCC[C@H]1C(=O)N[C@@H](CCCNC(=N)N)C(=O)N[C@@H](CO)C(=O)N[C@@H](CCCCN)C(=O)N[C@H](C(=O)N[C@@H](CO)C(=O)N1CCC[C@H]1C(=O)N[C@@H](CCC(N)=O)C(=O)N[C@H](C(=O)N1C[C@H](O)C[C@H]1C(N)=O)[C@@H](C)O)[C@@H](C)CC)C(C)C)[C@@H](C)O [compound 192] (H-GCRMGTCTVQRLAHQIYQFTNKDKDNVAPRSKISPQT[Hyp]-NH2; disulfide 2-7; N-terminus assumed) | 0.098 | > 5 | 4.100 |
| CC[C@H](C)[C@H](NC(=O)[C@H](CCC(N)=O)NC(=O)[C@H](Cc1c[nH]cn1)NC(=O)[C@H](C)NC(=O)[C@H](CC(C)C)NC(=O)[C@H](CCCNC(=N)N)NC(=O)[C@H](CCC(N)=O)NC(=O)[C@@H](NC(=O)[C@@H](NC(=O)[C@@H]1CSSC[C@H](NC(=O)[C@@H](N)CCCCN)C(=O)N[C@@H](CC(N)=O)C(=O)N[C@@H]([C@@H](C)O)C(=O)N[C@@H](C)C(=O)N[C@@H]([C@@H](C)O)C(=O)N1)[C@@H](C)O)C(C)C)C(=O)N[C@@H](Cc1ccc(O)cc1)C(=O)N[C@@H](CCC(N)=O)C(=O)N[C@H](C(=O)N[C@@H](CC(=O)O)C(=O)N[C@@H](CCCCN)C(=O)N[C@@H](CC(=O)O)C(=O)N[C@@H](CCCCN)C(=O)N[C@@H](CC(=O)O)C(=O)N[C@@H](CC(N)=O)C(=O)N[C@H](C(=O)N[C@@H](C)C(=O)N1CCC[C@H]1C(=O)N1CCC[C@H]1C(=O)N[C@H](C(=O)N[C@@H](CC(N)=O)C(=O)N[C@H](C(=O)NCC(=O)N[C@@H](CO)C(=O)N[C@@H](CC(N)=O)C(=O)NCC(=O)N1C[C@H](O)C[C@H]1C(N)=O)C(C)C)[C@@H](C)O)C(C)C)[C@@H](C)O [compound 195] (H-KCNTATCTVQRLAHQIYQTDKDKDNVAPPTNVGSNG[Hyp]-NH2; disulfide 2-7; N-terminus assumed) | 0.112 | > 5 | 6.100 |
| CC[C@H](C)[C@H](NC(=O)[C@H](CCC(N)=O)NC(=O)[C@H](Cc1c[nH]cn1)NC(=O)[C@H](C)NC(=O)[C@H](CC(C)C)NC(=O)[C@H](CCCNC(=N)N)NC(=O)[C@H](CCC(N)=O)NC(=O)[C@@H](NC(=O)[C@@H](NC(=O)[C@@H]1CSSC[C@H](NC(=O)CN)C(=O)N[C@@H](CCCNC(=N)N)C(=O)N[C@@H](Cc2c[nH]c3ccccc23)C(=O)NCC(=O)N[C@@H]([C@@H](C)O)C(=O)N1)[C@@H](C)O)C(C)C)C(=O)N[C@@H](Cc1ccc(O)cc1)C(=O)N[C@@H](CCC(N)=O)C(=O)N[C@@H](Cc1ccccc1)C(=O)N[C@H](C(=O)N[C@@H](CC(=O)O)C(=O)N[C@@H](CCCCN)C(=O)N[C@@H](CC(=O)O)C(=O)N[C@@H](CCCCN)C(=O)N[C@@H](CC(=O)O)C(=O)N[C@@H](CC(N)=O)C(=O)N[C@H](C(=O)N[C@@H](C)C(=O)N1CCC[C@H]1C(=O)N[C@@H](CO)C(=O)N[C@@H](CO)C(=O)N[C@@H](CCCCN)C(=O)N[C@H](C(=O)N[C@@H](CO)C(=O)N1CCC[C@H]1C(=O)N[C@@H](CCC(N)=O)C(=O)N[C@H](C(=O)N1C[C@H](O)C[C@H]1C(N)=O)[C@@H](C)O)[C@@H](C)CC)C(C)C)[C@@H](C)O [compound 202] (H-GCRWGTCTVQRLAHQIYQFTDKDKDNVAPSSKISPQT[Hyp]-NH2; disulfide 2-7) | 0.126 | > 5 | 12.600 |
